Measured values: patent US7138361B2, “Herbicidal heterocycles” (E. I. du Pont de Nemours and Company, priority 2000, dated 2006)

Legend:
Assay in all cases: Test C preemergence
Type in all cases: in vivo
[1] = tested on: Nightshade
From the text: (§1) Seeds of plant species selected from bermudagrass (Cynodon dactylon), Surinam grass (Brachiaria decumbens), cocklebur (Xanthium strumarium), corn (Zea mays), crabgrass (Digitaria sanguinalis), woolly cupgrass (Eriochloa villosa), giant foxtail (Setaria faberii), goosegrass (Eleusine indica), johnsongrass (Sorghum halepense), kochia (Kochia scoparia), lambsquarters (Chenopodium album), morningglory (Ipomoea hederacea), yellow nutsedge (Cyperus esculentus), pigweed (Amaranthus retroflexus), common ragweed (Ambrosia elatior), soybean (Glycine max) and velvetleaf (Abutilon theophrasti) were planted and treated preemergence with test chemicals formulated in a non-phytotoxic solvent mixture which included a surfactant.
(§2) At the same time, plants selected from these crop and weed species and also winter barley (Hordeum vulgare), blackgrass (Alopecurus myosuroides), canary grass (Phalaris minor), chickweed (Stellaria media), downy brome (Bromus tectorum), green foxtail (Setaria viridis), Italian ryegrass (Lolium multiflorum), wheat (Triticum aestivum), wild oat (Avena fatua) and windgrass (Apera spica-venti) were treated with postemergence applications of some of the test chemicals formulated in the same manner. Plants ranged in height from 2 to 18 cm (1- to 4-leaf stage) for postemergence treatments. Plant species in the flooded paddy test consisted of rice (Oryza saliva), smallflower flatsedge (Cyperus difformis), duck salad (Heteranthera limosa) and barnyardgrass (Echinochloa crus-galli) grown to the 2-leaf stage for testing. Treated plants and controls were maintained in a greenhouse for 12 to 14 days, after which time all species were compared to controls and visually evaluated. Plant response ratings, summarized in Table C, are based on a scale of 0 to 100 where 0 is no effect and 100 is complete control. A dash (-) response means no test result.

[2] = tested on: common ragweed (Ambrosia elatior)
From the text: as §1, §2

[3] = tested on: goosegrass (Eleusine indica)
From the text: as §1, §2

[4] = tested on: johnsongrass (Sorghum halepense)
From the text: as §1, §2

[5] = tested on: velvetleaf (Abutilon theophrasti)
From the text: as §1, §2

[6] = tested on: yellow nutsedge (Cyperus esculentus)
From the text: as §1, §2

[7] = tested on: morningglory (Ipomoea hederacea)
From the text: as §1, §2

[8] = tested on: soybean (Glycine max)
From the text: as §1, §2

[9] = tested on: Sunflower; details: Rate 125 g/ha; scale 0 to 100, 0 no effect, 100 complete control
From the text: as §1, §2

[10] = tested on: bermudagrass (Cynodon dactylon)
From the text: as §1, §2

[11] = tested on: cocklebur (Xanthium strumarium)
From the text: as §1, §2

[12] = tested on: Surinam grass (Brachiaria decumbens)
From the text: as §1, §2

[13] = tested on: pigweed (Amaranthus retroflexus)
From the text: as §1, §2

[14] = tested on: giant foxtail (Setaria faberii)
From the text: as §1, §2

[15] = tested on: lambsquarters (Chenopodium album)
From the text: as §1, §2

[16] = tested on: kochia (Kochia scoparia)
From the text: as §1, §2

[17] = tested on: woolly cupgrass (Eriochloa villosa)
From the text: as §1, §2

[18] = tested on: corn (Zea mays)
From the text: as §1, §2

[19] = tested on: crabgrass (Digitaria sanguinalis)
From the text: as §1, §2

[20] = Rate 62 g/ha, scale 0 to 100, 0 no effect, 100 complete control
[21] = Rate 125 g/ha, scale 0 to 100, 0 no effect, 100 complete control
[22] = Rate 250 g/ha, scale 0 to 100, 0 no effect, 100 complete control
[23] = preemergence, Rate 31 g/ha, scale 0 to 100
[24] = preemergence, Rate 250 g/ha, scale 0 to 100, 0 no effect, 100 complete control
[25] = preemergence, Rate 250 g/ha, visual evaluation after 12 to 14 days
[26] = preemergence, Rate 62 g/ha, scale 0 to 100

CCC(CC)c1ccn(C2CCN(c3ccc(C)c(OC)c3)C2=O)n1 (stereo not drawn) [Compound 81]
Plant response rating, Nightshade ([1]; Rate 31 g/ha, scale 0 to 100): 70 | Plant response rating, Nightshade [1, 20]: 100 | Plant response rating, Nightshade [1, 21]: 100 | Plant response rating, Nightshade [1, 22]: 100 | Plant response rating, Ragweed, Common [2, 21]: 100 | Plant response rating, Ragweed, Common [2, 23]: 30 | Plant response rating, Ragweed, Common [2, 24]: 100 | Plant response rating, Goosegrass [3, 20]: 100 | Plant response rating, Goosegrass [3, 21]: 100 | Plant response rating, Goosegrass [3, 23]: 90 | Plant response rating (0 to 100), Goosegrass [3, 25]: 100 | Plant response rating, Johnsongrass [4, 20]: 0 | Plant response rating, Johnsongrass [4, 21]: 20 | Plant response rating, Johnsongrass [4, 23]: 0 | Plant response rating (0 to 100), Johnsongrass [4, 25]: 20 | Plant response rating, Velvetleaf [5, 21]: 30 | Plant response rating, Velvetleaf [5, 23]: 0 | Plant response rating, Velvetleaf [5, 24]: 80 | Plant response rating, Nutsedge [6, 20]: 0 | Plant response rating, Nutsedge [6, 21]: 0 | Plant response rating, Nutsedge [6, 23]: 0 | Plant response rating, Nutsedge [6, 24]: 0 | Plant response rating, Morningglory [7, 20]: 0 | Plant response rating, Morningglory [7, 21]: 20 | Plant response rating, Morningglory [7, 23]: 0 | Plant response rating, Morningglory [7, 24]: 20 | Plant response rating, Soybean [8, 23]: 30 | Plant response rating, Soybean [8, 24]: 100 | Plant response rating, Sunflower [9]: 0 | Plant response rating, Bermudagrass [10, 20]: 100 | Plant response rating, Bermudagrass [10, 21]: 100 | Plant response rating, Bermudagrass [10, 23]: 100 | Plant response rating (0 to 100 where 0 is no effect and 100 is complete control), Bermudagrass [10, 25]: 100 | Plant response rating, Cocklebur [11, 20]: 0 | Plant response rating, Cocklebur [11, 21]: 0 | Plant response rating, Cocklebur [11, 23]: 0 | Plant response rating (0 to 100), Cocklebur [11, 25]: 20 | Plant response rating, Surinam grass [12, 20]: 20 | Plant response rating, Surinam grass [12, 21]: 50 | Plant response rating, Surinam grass [12, 23]: 0 | Plant response rating (0 to 100), Surinam grass [12, 25]: 100 | Plant response rating, Pigweed [13, 21]: 100 | Plant response rating, Pigweed [13, 23]: 100 | Plant response rating, Pigweed [13, 24]: 100 | Plant response rating, Foxtail, Giant [14, 20]: 90 | Plant response rating, Foxtail, Giant [14, 21]: 100 | Plant response rating, Foxtail, Giant [14, 23]: 30 | Plant response rating (0 to 100), Foxtail, Giant [14, 25]: 100 | Plant response rating, Lambsquarters [15, 20]: 100 | Plant response rating, Lambsquarters [15, 21]: 100 | Plant response rating, Lambsquarters [15, 23]: 100 | Plant response rating, Lambsquarters [15, 24]: 100 | Plant response rating, Kochia [16, 20]: 100 | Plant response rating, Kochia [16, 21]: 100 | Plant response rating, Kochia [16, 23]: 100 | Plant response rating (0 to 100), Kochia [16, 25]: 100 | Plant response rating, Cupgrass, Woolly [17, 20]: 30 | Plant response rating, Cupgrass, Woolly [17, 21]: 30 | Plant response rating, Cupgrass, Woolly [17, 23]: 0 | Plant response rating (0 to 100), Cupgrass, Woolly [17, 25]: 100 | Plant response rating, Corn [18, 20]: 0 | Plant response rating, Corn [18, 21]: 0 | Plant response rating, Corn [18, 23]: 0 | Plant response rating (0 to 100), Corn [18, 25]: 0 | Plant response rating, Crabgrass [19, 20]: 100 | Plant response rating, Crabgrass [19, 21]: 100 | Plant response rating, Crabgrass [19, 23]: 60 | Plant response rating (0 to 100), Crabgrass [19, 25]: 100

CCCC(C)c1ccn(C2SCN(c3cccc(OC(F)(F)F)c3)C2=O)n1 (stereo not drawn) [Compound 90]
Plant response rating, Nightshade ([1]; Rate 31 g/ha, scale 0 to 100): 0 | Plant response rating, Nightshade ([1]; Rate 62 g/ha, scale 0 to 100): 0 | Plant response rating, Nightshade [1, 21]: 0 | Plant response rating, Nightshade [1, 22]: 0 | Plant response rating, Ragweed, Common [2, 21]: 0 | Plant response rating, Ragweed, Common [2, 23]: 0 | Plant response rating, Ragweed, Common [2, 26]: 0 | Plant response rating, Ragweed, Common [2, 24]: 0 | Plant response rating, Goosegrass [3, 21]: 100 | Plant response rating, Goosegrass [3, 23]: 20 | Plant response rating, Goosegrass [3, 26]: 100 | Plant response rating, Goosegrass [3, 24]: 100 | Plant response rating, Johnsongrass [4, 21]: 70 | Plant response rating, Johnsongrass [4, 23]: 10 | Plant response rating, Johnsongrass [4, 26]: 10 | Plant response rating, Johnsongrass [4, 24]: 100 | Plant response rating, Velvetleaf [5, 21]: 0 | Plant response rating, Velvetleaf [5, 23]: 0 | Plant response rating, Velvetleaf [5, 26]: 0 | Plant response rating, Velvetleaf [5, 24]: 0 | Plant response rating, Nutsedge [6, 21]: 0 | Plant response rating, Nutsedge [6, 23]: 0 | Plant response rating, Nutsedge [6, 26]: 0 | Plant response rating, Nutsedge [6, 24]: 0 | Plant response rating, Morningglory [7, 21]: 0 | Plant response rating, Morningglory [7, 23]: 0 | Plant response rating, Morningglory [7, 26]: 0 | Plant response rating, Morningglory [7, 24]: 0 | Plant response rating, Soybean [8, 21]: 0 | Plant response rating, Soybean [8, 23]: 0 | Plant response rating, Soybean [8, 26]: 0 | Plant response rating, Soybean [8, 24]: 0 | Plant response rating, Sunflower [9]: 0 | Plant response rating, Bermudagrass [10, 21]: 100 | Plant response rating, Bermudagrass [10, 23]: 0 | Plant response rating, Bermudagrass [10, 26]: 0 | Plant response rating, Bermudagrass [10, 24]: 100 | Plant response rating, Cocklebur [11, 21]: 0 | Plant response rating, Cocklebur [11, 23]: 0 | Plant response rating, Cocklebur [11, 26]: 0 | Plant response rating, Cocklebur [11, 24]: 0 | Plant response rating, Surinam grass [12, 21]: 10 | Plant response rating, Surinam grass [12, 23]: 0 | Plant response rating, Surinam grass [12, 26]: 0 | Plant response rating, Surinam grass [12, 24]: 40 | Plant response rating, Pigweed [13, 21]: 0 | Plant response rating, Pigweed [13, 23]: 0 | Plant response rating, Pigweed [13, 26]: 60 | Plant response rating, Pigweed [13, 24]: 100 | Plant response rating, Foxtail, Giant [14, 21]: 0 | Plant response rating, Foxtail, Giant [14, 23]: 0 | Plant response rating, Foxtail, Giant [14, 26]: 40 | Plant response rating, Foxtail, Giant [14, 24]: 40 | Plant response rating, Lambsquarters [15, 21]: 100 | Plant response rating, Lambsquarters [15, 23]: 10 | Plant response rating, Lambsquarters [15, 26]: 100 | Plant response rating, Lambsquarters [15, 24]: 100 | Plant response rating, Kochia [16, 21]: 40 | Plant response rating, Kochia [16, 23]: 0 | Plant response rating, Kochia [16, 26]: 0 | Plant response rating, Kochia [16, 24]: 80 | Plant response rating, Cupgrass, Woolly [17, 21]: 10 | Plant response rating, Cupgrass, Woolly [17, 23]: 0 | Plant response rating, Cupgrass, Woolly [17, 26]: 0 | Plant response rating, Cupgrass, Woolly [17, 24]: 60 | Plant response rating, Corn [18, 21]: 0 | Plant response rating, Corn [18, 23]: 0 | Plant response rating, Corn [18, 26]: 0 | Plant response rating, Corn [18, 24]: 10 | Plant response rating, Crabgrass [19, 21]: 100 | Plant response rating, Crabgrass [19, 23]: 80 | Plant response rating, Crabgrass [19, 26]: 80 | Plant response rating, Crabgrass [19, 24]: 100
